Results taken from publication PMC4904373, “Azole Antifungal Sensitivity of Sterol 14α-Demethylase (CYP51) and CYP5218 from Malassezia globosa” (Scientific Reports, 2016).
≈ marks a conversion by molar mass, not a printed value. Where “and” joins values, the source holds several entries; their conditions need not be identical. Identical values can stand only once. Like-named read-outs stand apart in the source and are kept apart here.

Tests used:
[1] = target: T1, M. globosa CYP5218 (Malassezia globosa, UniProt A8QCD3, A3L/A5L/F6A/I7V/S4L/S8F); assay: biochemical; assay type: binding; details: for binding spectra with CYP5218: result in words; for CYP5218 Kd (μM) Eadie-Hofstee / CYP5218 Kd (μM) Michaelis-Menten / Kd: 4 μM CYP5218, type I spectra, mean of three replicates with SD
Protocol: Reduced carbon monoxide difference spectroscopy[46][47] and absolute spectra between 700 and 300 nm were used to determine cytochrome P450 concentrations. Substrate and azole binding studies were performed[31][48] using 2.5 mM stock sterol solutions in 40% (wt/vol) (2-hydroxypropyl)-β-cyclodextrin (HPCD), 4 mg ml^−1 solutions of fatty acids in dimethylformamide (DMF), and stock 0.05, 0.1 and 0.2 mg ml^−1 solutions of azole antifungal agents in dimethylsulfoxide (DMSO). Sterols were titrated against 5 μM CYP51, fatty acids were titrated against 4 μM CYP5218 and azole antifungal agents were titrated against 2 μM CYP51 and CYP5218. The absorbance difference spectrum between 500 and 350 nm was determined after each incremental addition of ligand with saturation curves constructed from ΔApeak-trough against ligand concentration. […] The dissociation constants of the enzyme-azole complex were determined by non-linear regression (Levenberg-Marquardt algorithm) using a rearrangement of the Morrison equation for tight ligand binding. ProFit 6.1.12 (QuantumSoft, Zurich, Switzerland) was used for curve-fitting data. All ligand-binding studies were performed at 22 ± 2 °C and in triplicate. All spectral determinations were made using a Hitachi U-3310 UV/VIS spectrophotometer (San Jose, California).

[2] = target: T1, M. globosa CYP5218; details: 100 μM fatty acid, 1 hour to overnight (~16 h), three different cytochrome P450 reductase redox partners
Protocol: The CYP5218 fatty acid reconstitution assay system used was based on that previously described by Guengerich[54] and contained 200 nM of CYP5218, 500 nM of cytochrome P450 reductase (A. fumigatus CPR1[52]) or H. sapiens CPR[55] or C. albicans CPR[56], 50 μM DLPC, 100 μM fatty acid (lauric acid, myristic acid, palmitic acid, palmitoleic acid, oleic acid and linoleic acid), 4 mM glucose-6-phosphate, 3 U/ml yeast glucose-6-phosphate dehydrogenase in a final volume of 500 μl with 0.1 M potassium phosphate (pH 7.4). Assay mixtures were incubated at 37 °C for 5 min prior to initiation with 4 mM β-NADPHNa4 and then incubated for a further 60 min or overnight (~16 h) at 37 °C. Fatty acid metabolites were recovered by extraction with dichloromethane and dried in a vacuum centrifuge. Samples were derivatized with 200 μl anhydrous pyridine and 250 μl BSTFA:TMCS (99:1) (30 min at 80 °C) and extracted with 500 μl of hexane, prior to analysis by GC/MS (Thermo GC Trace 1300 and ISQ MS). GC analysis was performed with a 5% phenyl methylpolysiloxane column (DB5) (Agilent Technologies). The oven programme was as follows: initial: 70 °C, with 3 min hold; ramp: 10 °C min^−1 to 180 °C (held for 2 min), 10 °C min^−1 to 250 °C (held for 2 min) and 10 °C min^−1 to 280 °C (held for 2 min). Data were analyzed using Thermo Xcalibur 2.2 software.

[3] = test system: Candida maltosa CYP52A4; design: method as in PMID 8645001; details: cited from earlier work
[4] = target: T2, M. globosa CYP51 (Malassezia globosa, UniProt A8Q3I7, A7V/E4L/G6A/I5L/L2A/Q3L/W8F); assay: biochemical; assay type: binding
T2 sequence (A8Q3I7 whole entry L2A/Q3L/E4L/I5L/G6A/A7V/W8F): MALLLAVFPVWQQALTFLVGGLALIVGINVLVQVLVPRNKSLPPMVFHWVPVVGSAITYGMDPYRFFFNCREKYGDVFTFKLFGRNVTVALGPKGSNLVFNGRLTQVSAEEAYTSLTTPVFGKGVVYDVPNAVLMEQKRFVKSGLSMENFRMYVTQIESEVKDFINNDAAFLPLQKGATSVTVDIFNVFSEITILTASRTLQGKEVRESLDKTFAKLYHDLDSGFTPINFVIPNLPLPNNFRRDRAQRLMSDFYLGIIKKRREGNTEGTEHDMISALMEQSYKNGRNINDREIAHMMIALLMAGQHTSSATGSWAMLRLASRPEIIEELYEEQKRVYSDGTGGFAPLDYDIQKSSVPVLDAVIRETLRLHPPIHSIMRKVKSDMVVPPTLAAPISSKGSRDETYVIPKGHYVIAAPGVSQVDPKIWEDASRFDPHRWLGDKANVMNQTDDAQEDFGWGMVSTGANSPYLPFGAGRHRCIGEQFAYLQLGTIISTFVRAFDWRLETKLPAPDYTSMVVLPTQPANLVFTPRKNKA
Protocol: (§1) Reduced carbon monoxide difference spectroscopy[46][47] and absolute spectra between 700 and 300 nm were used to determine cytochrome P450 concentrations. Substrate and azole binding studies were performed[31][48] using 2.5 mM stock sterol solutions in 40% (wt/vol) (2-hydroxypropyl)-β-cyclodextrin (HPCD), 4 mg ml^−1 solutions of fatty acids in dimethylformamide (DMF), and stock 0.05, 0.1 and 0.2 mg ml^−1 solutions of azole antifungal agents in dimethylsulfoxide (DMSO). Sterols were titrated against 5 μM CYP51, fatty acids were titrated against 4 μM CYP5218 and azole antifungal agents were titrated against 2 μM CYP51 and CYP5218. The absorbance difference spectrum between 500 and 350 nm was determined after each incremental addition of ligand with saturation curves constructed from ΔApeak-trough against ligand concentration. The dissociation constants (Kd) for sterols and fatty acids were determined by non-linear regression (Levenberg-Marquardt algorithm) using the Michaelis-Menten equation. The dissociation constants of the enzyme-azole complex were determined by non-linear regression (Levenberg-Marquardt algorithm) using a rearrangement of the Morrison equation for tight ligand binding. ProFit 6.1.12 (QuantumSoft, Zurich, Switzerland) was used for curve-fitting data. All ligand-binding studies were performed at 22 ± 2 °C and in triplicate. All spectral determinations were made using a Hitachi U-3310 UV/VIS spectrophotometer (San Jose, California).

[5] = target: T1, M. globosa CYP5218; assay: biochemical; assay type: binding; details: for azole binding to CYP5218 (binding spectra): 2 μM CYP5218, result in words; for Kd: azole titrated against 2 μM CYP5218
Protocol: as §1

[6] = test system: M. globosa ATCC MYA-4612; assay: M. globosa MIC100 determination; assay type: cell-based, Malassezia globosa; details: Malassezia globosa, 168 h; modified Dixon medium, 30 °C, 7 days; read-out: MIC100
Protocol: M. globosa ATCC MYA-4612 was grown for 7 days at 30 °C in modified Dixon medium (3.6% malt extract, 2% desiccated ox-bile, 1% Tween 40, 0.6% peptone, 0.2% glycerol, 0.2% oleic acid, pH adjusted to 6 with HCl) until a culture density of 1.5 × 10^5 cells ml^−1 was obtained. Cells from 3 ml of stock culture were harvested, suspended in 1 ml of saline and used to inoculate 30 ml of fresh modified Dixon medium for use as M. globosa inoculums in MIC determinations. Stock azole concentrations of 1600, 800, 400, 200, 100, 50, 25, 12.5, 6.25, 3.125 and 0 μg ml^−1 were prepared in DMSO. These were diluted ten-fold with fresh modified Dixon media and 20 μl of the diluted azole solutions were then mixed with 180 μl of M. globosa inoculum in microtiter plate wells to yield final azole concentrations of 16, 8, 4, 2, 1, 0.5, 0.25, 0.125, 0.0625, 0.03125 and 0 μg ml^−1. The microtiter plates were incubated at 30 °C for 7 days and then read. Each azole MIC100 determination was performed in triplicate.

[7] = target: T2, M. globosa CYP51; details: 0.5 μM CYP51, 50 μM sterol substrate
Protocol: (§2) Sterol metabolites were recovered by extraction with ethyl acetate followed by derivatization with 0.1 ml N,O-bis(trimethylsilyl)trifluoroacetamide (BSTFA) : trimethylchlorosilane (TMCS) (99:1) and 0.3 ml anhydrous pyridine (2 h at 80 °C) prior to analysis by gas chromatography mass spectrometry (GC/MS)[53].

[8] = target: T2, M. globosa CYP51; assay: biochemical; details: IC50, 0.5 μM CYP51, CYP51:AfCPR1 1:2, 50 μM lanosterol as substrate
Protocol: as §2

[9] = test system: M. globosa; assay: Sterol analysis of azole-treated M. globosa; assay type: cell-based, Malassezia globosa; details: 0.125 μg ml^−1 ketoconazole
Protocol: Individual sterols were identified by reference to relative retention times, mass ions and fragmentation patterns. Sterol composition was calculated using peak areas.

[10] = test system: M. globosa; details: cited from earlier work
[11] = test system: C=C(CC[C@@H](C)[C@H]1CC[C@@]2(C)C3=C(CC[C@]12C)[C@@]1(C)CC[C@H](O)C(C)(C)[C@@H]1CC3)C(C)C; assay: purified protein, by the assay type; details: other: 0.13 μM CYP51, 0.5 μM AfCPR1, 5 min at 37 °C, substrate inhibition equation
Protocol: (§3) Assay mixtures were incubated at 37 °C for 10 minutes prior to initiation with 4 mM β-NADPHNa4 followed by shaking at 37 °C for 20 minutes. Sterol metabolites were recovered by extraction with ethyl acetate followed by derivatization with 0.1 ml N,O-bis(trimethylsilyl)trifluoroacetamide (BSTFA) : trimethylchlorosilane (TMCS) (99:1) and 0.3 ml anhydrous pyridine (2 h at 80 °C) prior to analysis by gas chromatography mass spectrometry (GC/MS)[53].

[12] = test system: C=C(CC[C@@H](C)[C@H]1CC[C@@]2(C)C3=C(CC[C@]12C)[C@@]1(C)CC[C@H](O)[C@@H](C)[C@@H]1CC3)C(C)C; assay: purified protein, by the assay type; details: other: 0.13 μM CYP51, 0.5 μM AfCPR1, 5 min at 37 °C, substrate inhibition equation
Protocol: as §3

[13] = CYP5218 Kd (μM) Michaelis-Menten

C=CCCCCCCCCCCCCCC [1-hexadecene]
binding spectra with CYP5218 [1]: No binding spectra

CCCCCCCCCCCCCCCCCCCC(=O)O [Arachidic acid, arachidic acid]
CYP5218 Kd (μM) Eadie-Hofstee [1]: no binding
CYP5218 Kd (μM) Michaelis-Menten [1]: no binding
binding spectra with CYP5218 [1]: No binding spectra

CCCCC/C=C\C/C=C\C/C=C\C/C=C\CCCC(=O)O [Arachidonic acid, arachidonic acid]
Kd ([1]; CYP5218 Kd (μM) Eadie-Hofstee): 256 ± 36 µM
Kd [1, 13]: 264 ± 34 µM

CCCCCCCCCC(=O)O [Capric acid, capric acid]
CYP5218 Kd (μM) Eadie-Hofstee [1]: no binding
CYP5218 Kd (μM) Michaelis-Menten [1]: no binding
binding spectra with CYP5218 [1]: No binding spectra

CCCCCCCCCCCC(=O)O [Lauric acid, lauric acid]
Kd ([1]; CYP5218 Kd (μM) Eadie-Hofstee): 136 ± 3 µM
Kd [1, 13]: 136 ± 4 µM
product formation in CYP5218 reconstitution assay [2]: no observed product formation
Kd [3]: ~110 µM

CC/C=C\CCCCCCCC(=O)O [Lauroleic acid, lauroleic acid]
CYP5218 Kd (μM) Michaelis-Menten [1]: poor fit
Kd ([1]; read-out: CYP5218 Kd (μM) Eadie-Hofstee): 148 ± 20 µM

CCCCCCCCCCCCCC(=O)O [Myristic acid, myristic acid]
Kd ([1]; CYP5218 Kd (μM) Eadie-Hofstee): 245 ± 29 µM
Kd [1, 13]: 195 ± 41 µM
product formation in CYP5218 reconstitution assay [2]: no observed product formation
Kd [3]: ~120 µM

CCCC/C=C\CCCCCCCC(=O)O [Myristoleic acid, myristoleic acid]
Kd ([1]; CYP5218 Kd (μM) Eadie-Hofstee): 151 ± 8 µM
Kd [1, 13]: 158 ± 20 µM

CCCCCCCC/C=C\CCCCCCCC(=O)O [Oleic acid, oleic acid]
Kd ([1]; CYP5218 Kd (μM) Eadie-Hofstee): 90 ± 16 µM
Kd [1, 13]: 93 ± 11 µM
product formation in CYP5218 reconstitution assay [2]: no observed product formation

CCCCCCCCCCCCCCCC(=O)O [Palmitic acid, palmitic acid]
Kd ([1]; CYP5218 Kd (μM) Eadie-Hofstee): 253 ± 77 µM
Kd [1, 13]: 1020 ± 755 µM
product formation in CYP5218 reconstitution assay [2]: no observed product formation

CCCCCC/C=C\CCCCCCCC(=O)O [Palmitoleic acid, palmitoleic acid]
Kd ([1]; CYP5218 Kd (μM) Eadie-Hofstee): 114 ± 5 µM
Kd [1, 13]: 113 ± 7 µM
product formation in CYP5218 reconstitution assay [2]: no observed product formation

CCCCCCCCCCCCCCCCCC(=O)O [Stearic acid, stearic acid]
CYP5218 Kd (μM) Eadie-Hofstee [1]: no fit ^a
CYP5218 Kd (μM) Michaelis-Menten [1]: no fit ^a

Clc1ccccc1C(c1ccccc1)(c1ccccc1)n1ccnc1 [clotrimazole]
Kd [4]: 0.004 ± 0.002 µM
azole binding to CYP5218 (binding spectra) [5]: type II binding spectra
Kd [5]: ~0.5 µM and 0.486 µM
MIC [6]: 8 µg/mL (≈ 23.2 µM)

C=C(CC[C@@H](C)[C@H]1CC[C@@]2(C)C3=C(CC[C@]12C)[C@@]1(C)CC[C@H](O)C(C)(C)[C@@H]1CC3)C(C)C [eburicol]
binding spectra with CYP5218 [1]: failed to give reproducible binding spectra
turnover number [7]: 5.6 min⁻¹
Kd [4]: 23 µM

CCC(C)n1ncn(-c2ccc(N3CCN(c4ccc(OCC5COC(Cn6cncn6)(c6ccc(Cl)cc6Cl)O5)cc4)CC3)cc2)c1=O (stereo not shown) [itraconazole]
Kd [4]: 0.002 ± 0.001 µM
azole binding to CYP5218 (binding spectra) [5]: type II binding spectra
Kd [5]: ~0.4 µM and 0.407 µM
IC50 [8]: 0.188 ± 0.008 µM
MIC [6]: 0.0625 µg/mL (≈ 0.0886 µM)

CC(=O)N1CCN(c2ccc(OCC3COC(Cn4ccnc4)(c4ccc(Cl)cc4Cl)O3)cc2)CC1 (stereo not shown) [ketoconazole]
Kd [4]: 0.002 ± 0.001 µM
azole binding to CYP5218 (binding spectra) [5]: type II binding spectra
Kd [5]: ~1.6 µM
IC50 [8]: 0.176 ± 0.016 µM
MIC [6]: 0.25 µg/mL (≈ 0.47 µM)
sterol fraction (%) 4,4-dimethylzymosterol [9]: 0%
sterol fraction (%) Eburicol [9]: 30.33%
sterol fraction (%) Episterol [9]: 0%
sterol fraction (%) Ergosta-7-enol [9]: 1.58%
sterol fraction (%) Ergosta-8,22-dienol [9]: 1.89%
sterol fraction (%) Ergosta-8-enol [9]: 2.23%
sterol fraction (%) Ergosterol [9]: 51.50%
sterol fraction (%) Fecosterol [9]: 0.98%
sterol fraction (%) Obtusifoliol [9]: 0.18%
sterol fraction (%) Cholesterol ([9]; cholesterol assimilated from growth media): 1.92%

CC(C)=CCC[C@@H](C)[C@H]1CC[C@@]2(C)C3=C(CC[C@]12C)[C@@]1(C)CC[C@H](O)C(C)(C)[C@@H]1CC3 [lanosterol]
binding spectra with CYP5218 [1]: failed to give reproducible binding spectra
turnover number [7]: 1.7 min⁻¹
Kd [4]: 32 µM

CCCCC/C=C\C/C=C\CCCCCCCC(=O)O [linoleic acid]
Kd ([1]; CYP5218 Kd (μM) Eadie-Hofstee): 36 ± 6 µM
Kd [1, 13]: 36 µM
product formation in CYP5218 reconstitution assay [2]: no observed product formation

CCCCCCCCCCCCCCCC [n-hexadecane]
binding spectra with CYP5218 [1]: No binding spectra

C=C(CC[C@@H](C)[C@H]1CC[C@@]2(C)C3=C(CC[C@]12C)[C@@]1(C)CC[C@H](O)[C@@H](C)[C@@H]1CC3)C(C)C [obtusifoliol]
turnover number [7]: 3.4 min⁻¹
Kd [4]: 28 µM

CC[C@@H]([C@H](C)O)n1ncn(-c2ccc(N3CCN(c4ccc(OC[C@@H]5CO[C@@](Cn6cncn6)(c6ccc(F)cc6F)C5)cc4)CC3)cc2)c1=O [posaconazole]
MIC values previously reported [10]: 0.06 µg/mL (≈ 0.0856 µM)

C[C@@H](c1ncncc1F)[C@](O)(Cn1cncn1)c1ccc(F)cc1F [voriconazole]
Kd [4]: 0.008 ± 0.005 µM
Kd [5]: ~107 µM
MIC [6]: 1 µg/mL (≈ 2.86 µM)

M. globosa CYP51 (Malassezia globosa CBS 7966; A7V/E4L/G6A/I5L/L2A/Q3L/W8F)
Km [11]: 55.91 ± 19.79 µM
kcat [11]: 1.092 ± 0.2675 s⁻¹
Km [12]: 42.09 ± 10.45 µM
kcat [12]: 0.8948 ± 0.2368 s⁻¹
